According to patent publication US20020160012A1, “Vaccine chip technology exploiting immunostimulating fragment of TGF-BETA” (priority 2000, published 2002):
No end group written: not given here.

Key:
parvovirus peptide [1] = assay: Rabbit immunisation with parvovirus peptide, TGF-29 dose and Titermax adjuvant, serum ELISA (Example 3); type: in vivo, rabbits; settings: bleeding T3 (6 weeks after first immunisation); 20 ug TGF-29 + 100 ug parvovirus peptide + Titermax (preparation Iris)
Protocol: Both preparations were subcutaneously injected into 2 groups of rabbits. Each injected dose was 0, 1 mL and the preparations for a resulting volume between 0,4 and 0,5 mL was made as follows:
The rabbits were then immunised according to the normal standard immunisation procedure for antibody production in rabbits at a legal laboratory animal facility.
(§1) Before immunisation, a pre-immunisation serum sample (T0) of each rabbit was collected. Before each of the following immunisations (given at 2 week intervals) an immune serum sample (T1, T2, or T3) was collected from each rabbit.
(§2) The serum samples were analysed on an ELISA plate according to standard laboratory operations: Coating the plate bottom with parvo virus peptide derivative overnight, washings, incubation with serial dilutions of all serum samples, washings, incubation with HRP-Goat anti Rabbit Ig, washings, incubation with substrate, stop reaction with acid, and reading of the plate.

parvovirus peptide [2] = assay: Rabbit immunisation with Parv or Parv+TGF-29, serum ELISA for antibody titre (Example 1); type: in vivo, rabbits; settings: immune serum samples vs corresponding T0 sera; 3 subcutaneous immunisations at 2 week intervals; freunds incomplete adjuvant
Protocol: Both preparations were subcutaneously injected into 2 groups of rabbits. The content of each injected dose of 0.2 mL were:
The rabbits were immunised by subcuteous injection according to normal standard immunisation procedures for antibody production in rabbits at a legal laboratory animal facility.
(§3) Before immunisation, a pre-immunisation serum sample (T0) of each rabbit were collected. Two weeks after the last of 3 immunisations (given at 2 week intervals) an immune serum sample (T1) was collected from each rabbit. Hereafter further immune serum samples were collected T2 (4 weeks after T1); T3 (four weeks after T2) etc.
as §2

[3] = Clinical signs of immunised rabbits; type: in vivo; settings: Example 1; subcutaneous, 3 immunisations at 2 week intervals
Description: as §3
Before immunisation, a pre-immunisation serum sample (T0) of each rabbit were collected. Before each of the following immunisations (given at 2 week intervals) an immune serum sample (T1, T2, T3 or T4 ) was collected from each rabbit. The serum sampling frequency is higher compared with example 1.
as §1

ALDAAYCFRNVQDNCCLRPLYIDFKRDLG (cysteine pairing not given here) [TGF-29, N-terminal 29 amino acid fragment of mature TGF-β]
titer to the parvovirus peptide compared with the corresponding T0 serum (parvovirus peptide [1]): more than three 5-fold serial antiserum dilutions better | titer to the parvovirus peptide, rank among all bleedings of the example (parvovirus peptide [1]): highest titer

Ac-CDGAVQPDGGQPAVRNER-NH2 [Parv]
antibody titre to the parvovirus peptide (parvovirus peptide [2]): Non-detectable or less antibody titre to the parvovirus peptide than in the corresponding T0 sera | unusual clinical signs [3]: None of the rabbits showed any unusual clinical signs
